Data published in patent publication US20120276049A1, “Methods and compositions for amelioration of autoimmune disease using fusion proteins of anti-dendritic cell receptor antibody to peptide sequences” (President and Fellows of Harvard College, priority 2009, published 2012).

Tests used:
[1] = in vivo; cited from earlier work
[2] = system: relapsing-remitting forms of MS; details: cited from earlier work
[3] = target: DEC205 receptor (mouse), on splenic CD11c+ dendritic cells of SJL mice (mouse) (UniProt Q60767); experiment: cell-based or functional assay
[4] = system: PLP139-151-induced EAE in recipient SJL mice; experiment: Adoptive transfer of CD4+ T cells from preimmunized SJL mice, then EAE induction in recipients; type: in vivo, mouse; details: donors coimmunized with 500 μg copolymer
Experimental: SJL mice were preimmunized on day 10 i.p. with each of 1 μg fusion monoclonal antibodies: DEC205-PLP-specific (closed diamonds; αDEC205/PLP mAb CD4^+ T cells) or control GL117-PLP-specific (closed squares; GL117/PLP mAb CD4^+ T cells), or control treatment with 500 μg of the synthetic amino acid copolymer (poly (F,Y,A,K)n; closed light gray circles; PLP139-151+FYAK CD4^+ T cells) or no treatment (closed triangles). The 5×10^6 CD4+ T cells, enriched splenocytes obtained from preimmunized mice, were adoptively transferred i.v. into the tail veins of non-treated mice, followed by immunization on day 1 with 75 μg of PLP139-151 in CFA and PT i.v. the following day. Controls received PBS injections. Mean disease scores of five mice/group are shown. […]
SJL mice herein were preimmunized at day 10 i.p. with 1 μg of DEC205-PLP specific monoclonal antibodies (closed diamonds; αDEC205/PLP mAb) only or not treated (closed triangles) in a control group. Mice were monitored for clinical signs of EAE for 30 days. […]
SJL/J mice were preimmunized (day 10, 15, or 20) with 1 μg i.p. of fusion monoclonal antibodies (DEC205-PLP specific monoclonal antibodies, DEC205-HA specific monoclonal antibodies, DEC205 specific monoclonal antibodies alone, or GL117-PLP specific monoclonal antibodies). […] The mice were scored daily for 30 days. […]

[5] = system: Experimental Autoimmune Encephalomyelitis (EAE, the mouse model of MS); details: compared with Copaxone; cited from earlier work
[6] = system: patients with secondary progressive MS; details: weekly s.c. 3 or 10 mg; 50 patients; cited from earlier work

UniProt Q60767, sequence (Q60767 28-1723): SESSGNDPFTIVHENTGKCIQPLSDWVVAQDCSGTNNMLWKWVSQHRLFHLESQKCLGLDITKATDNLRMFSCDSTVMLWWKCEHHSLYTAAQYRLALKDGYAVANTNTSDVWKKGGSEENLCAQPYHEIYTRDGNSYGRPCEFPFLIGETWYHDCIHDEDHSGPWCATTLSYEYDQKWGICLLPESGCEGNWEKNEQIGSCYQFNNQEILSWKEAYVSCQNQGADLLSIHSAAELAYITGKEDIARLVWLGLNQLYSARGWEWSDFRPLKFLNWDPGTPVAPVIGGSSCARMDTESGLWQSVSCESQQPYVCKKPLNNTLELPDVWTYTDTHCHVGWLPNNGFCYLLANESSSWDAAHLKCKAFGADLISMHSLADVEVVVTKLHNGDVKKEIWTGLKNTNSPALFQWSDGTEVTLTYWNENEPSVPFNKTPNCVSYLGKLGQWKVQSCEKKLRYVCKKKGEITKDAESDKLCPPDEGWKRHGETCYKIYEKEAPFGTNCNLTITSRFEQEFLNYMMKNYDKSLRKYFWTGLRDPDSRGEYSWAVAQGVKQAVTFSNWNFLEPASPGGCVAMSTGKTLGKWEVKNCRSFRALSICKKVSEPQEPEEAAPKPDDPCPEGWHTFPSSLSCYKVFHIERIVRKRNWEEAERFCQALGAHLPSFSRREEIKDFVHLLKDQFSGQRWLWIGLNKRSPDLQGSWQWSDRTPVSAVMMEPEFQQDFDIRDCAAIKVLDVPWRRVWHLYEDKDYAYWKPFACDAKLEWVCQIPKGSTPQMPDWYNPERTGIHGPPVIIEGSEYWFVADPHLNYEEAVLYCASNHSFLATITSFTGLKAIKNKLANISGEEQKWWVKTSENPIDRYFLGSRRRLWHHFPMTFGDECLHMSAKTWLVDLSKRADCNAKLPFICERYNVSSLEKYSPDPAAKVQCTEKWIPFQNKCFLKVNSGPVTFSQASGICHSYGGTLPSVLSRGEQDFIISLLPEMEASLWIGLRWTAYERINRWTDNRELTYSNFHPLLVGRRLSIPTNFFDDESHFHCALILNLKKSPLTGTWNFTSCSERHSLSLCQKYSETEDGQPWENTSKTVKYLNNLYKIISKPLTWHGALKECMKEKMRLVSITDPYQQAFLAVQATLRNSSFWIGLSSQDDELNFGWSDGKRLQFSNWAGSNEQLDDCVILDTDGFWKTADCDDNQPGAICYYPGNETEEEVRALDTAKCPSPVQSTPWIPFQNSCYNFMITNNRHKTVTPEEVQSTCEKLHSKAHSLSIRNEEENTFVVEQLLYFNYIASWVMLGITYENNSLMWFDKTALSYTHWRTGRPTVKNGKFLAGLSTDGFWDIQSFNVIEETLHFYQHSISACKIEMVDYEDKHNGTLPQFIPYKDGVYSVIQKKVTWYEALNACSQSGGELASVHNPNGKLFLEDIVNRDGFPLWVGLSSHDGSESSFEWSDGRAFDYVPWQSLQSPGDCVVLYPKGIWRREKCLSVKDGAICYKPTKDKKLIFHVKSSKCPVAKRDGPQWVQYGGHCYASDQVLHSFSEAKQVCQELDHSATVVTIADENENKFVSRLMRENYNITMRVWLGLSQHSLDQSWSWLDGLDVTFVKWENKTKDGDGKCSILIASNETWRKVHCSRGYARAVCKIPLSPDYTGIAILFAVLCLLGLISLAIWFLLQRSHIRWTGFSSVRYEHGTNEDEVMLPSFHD

poly(Y, E, A, K)n [Copaxone ®]
side effects [1]: severe injection | reduction of relapse rate [2]: 30%

anti-DEC205-PLP139-151 fusion monoclonal antibody (cloned NLDC-145 with PLP139-151 fused to the C terminus of the Ig heavy chain)
IFN-γ secretion in day 3 coculture supernatants (cytokine bead array) [3]: 10 fold

poly (F,Y,A,K)n [FYAK]
EAE induction in recipients of CD4+ T cells [4]: efficiently prevented EAE induction | effectiveness in treatment of EAE [5]: far more effective than Copaxone | number of Gadolinium-enhancing lesions [6]: severely reduce
